Reference: patent US20060194874A1, “Use of propionyl l-carnitine for the preparation of a medicament for the treatment of glaucoma” (priority 2002, published 2006)

Columns and labels:
[1] = tested on: 3T6 cells (murine fibroblast line); assay: TUNEL reaction in vitro (chromatin status) in serum-deprived 3T6 cells; assay type: cell-based
Experimental: (§1) To assess the chromatin status (and thus the apoptosis) in serum-deprived 3T6 cells, and, in cells treated with propionyl L-carnitine, a TUNEL (terminal deoxynucleotidyl transferase-mediated dUTP-biotin end labelling) reaction was performed in vitro. TUNEL labelling is a technique that consists in the addition of nucleotides (conjugated with fluorescein) at the free 3′-OH extremities present in the fragmented DNA. This reaction is catalysed by the terminal enzyme transferase. The TUNEL technique was performed on untreated serum-deprived cells and on serum-deprived cells to which the three concentrations (0.25 mM, 0.55 mM, and 1.1 mM) of propionyl L-carnitine already used for the cell counts were administered. […] The binding of the primary antibody with its epitope to BAX was detected with a secondary antibody that exploits DAB ([…]) staining. The cells subjected to cytoimmunological localisation were deprived of serum 24 hours after plating and treated with propionyl L-carnitine at the above-mentioned concentrations. Cells grown in complete medium were used as the positive control, while the negative control was prepared with cells deprived of serum 24 hours after plating.

[2] = tested on: 3T6 cells (murine fibroblast line); assay: Cell count with erythrosine staining, serum-deprived 3T6 cells (induced apoptosis); assay type: cell-based; conditions: 0.25 mM, 0.55 mM, 1.1 mM
Experimental: In subsequent experiments, apoptosis was induced in 3T6 cells 24 hours after plating by means of serum deprivation, and simultaneously propionyl L-carnitine was added to the cells. Three different concentrations of the compound were used: 0.25 mM, 0.55 mM and 1.1 mM. 48 hours after plating (24 hours after administration of the substance) a cell count with erythrosine staining was performed. Cells grown in complete medium were taken as the negative control and serum-deprived cells as the positive control.

[3] = tested on: ganglionic cells of the retina and/or astrocytes of the optic nerve; assay: In-vivo rat model of methylcellulose (MTC)-induced intraocular hypertension (experimental glaucoma): histology and TUNEL
Experimental: The effect of propionyl L-carnitine was evaluated in an in-vivo experimental rat model. This model of induction of programmed cell death (apoptosis) and/or necrosis of ganglionic cells of the retina and/or astrocytes of the optic nerve is described in the above-mentioned Acta Ophthalmologica Scandinavica, 1988, Supplement 27, 20-21 and Experimental Postgraduate Degree Thesis, Institute of Ophthalmology, “La Sapienza” University, Rome. Intraocular hypertension was induced by means of injecting methylcellulose (MTC) into the anterior chamber. The rats were divided into three groups: 1) untreated (blanks), 2) rats treated with 2% MTC (10 μL), and 3) rats treated with MTC and propionyl L-carnitine 0.15 mM final concentration injected into the anterior chamber. In semithin histological sections of untreated rat optic nerve (haematoxylin-eosin staining), normal longitudinal organisation of the astrocytes among the fibres was detected (FIG. 1A). In contrast, in rats treated with MTC, loss of cell organisation and the presence of necrotic astrocytes were detected (FIG. 1B).

BAX = assay: Cytoimmunological localisation of BAX (DAB staining, haematoxylin counterstain) in serum-deprived 3T6 cells; assay type: cell-based, murine
Experimental: as §1
Counterstaining with a nuclear dye such as haematoxylin was also performed in order to confirm the fact that the staining obtained with cytoimmunological localisation was effectively cytoplasmic. On the basis of the data reported in the literature, in fact, it is known that BAX is a cytoplasmically localised protein. […] On comparing the data obtained in the cell counts, with the TUNEL technique and with cytoimmunological localisation, an improvement can be found in cell survival after treatment with propionyl L-carnitine. This proves evident both in cells grown in complete medium and in cells grown in conditions in which apoptosis is induced as a result of serum deprivation.

[4] = tested on: patients suffering from glaucoma; assay: Clinical trial: ocular colour Doppler ultrasonography, visual field (Octopus) and intraocular pressure; assay type: in vivo, human
Experimental: Ten patients suffering from glaucoma were treated with propionyl L-carnitine (DROMOS®) by mouth at a dose of 2 g/day for periods ranging from 15 to 50 days. Ocular arterial flow was studied by means of ocular colour Doppler ultrasonography. The posterior (nasal) ciliary artery, the posterior (temporal) ciliary artery, the central retinal and ophthalmic arteries were examined. Systolic and diastolic flow rates were expressed in cm/sec; the ratio (systolic—diastolic flow)/systolic flow expresses the peripheral resistance index. Visual fields before and after treatment with DROMOS® were compared.

[5] = tested on: 3T6 cells (murine fibroblast line); assay: Cell count with erythrosine stain, 3T6 cells grown in complete medium; assay type: cell-based; conditions: 3T6 cells in complete medium, count 24 hours after administration
Experimental: 3T6 cells (murine fibroblast line) grown in complete medium (DMEM: 10% NBS, 2% PEST and 2% glutamine) were treated with propionyl L-carnitine 24 hours after plating the cells. 48 hours after plating (24 hours after administration of the substance), a cell count was performed on the cells thus treated with an erythrosine stain that detects cells that are no longer viable (diluted 1:5 with PBS A buffer) from which the cell survival data were obtained. As controls, we used cells cultivated in complete medium on which the cell count was performed, again 24 hours after plating.

[6] = ten glaucoma patients, 2 g/day by mouth, 15 to 50 days

SMILES: CCC(=O)O[C@H](CC(=O)[O-])C[N+](C)(C)C [propionyl L-carnitine]
- cytoprotective effect, dependence on concentration ([1]; 0.25 mM, 0.55 mM, 1.1 mM): increased with the increase in concentration
- chromatin fragmentation (TUNEL fluorescence intensity) ([1]; serum-deprived 3T6 cells vs untreated serum-deprived cells, FIG. 3B): a marked reduction in chromatin fragmentation
- cell viability compared to negative control (complete medium) [2]: still less than that obtained in the negative control
- cell mortality compared to serum-deprived cells (positive control) ([2]; count 24 hours after administration): a reduction in cell mortality
- organisation of astrocytes in semithin histological sections of optic nerve ([3]; rats treated with 2% MTC (10 μL) and propionyl L-carnitine 0.15 mM final concentration, injected into the anterior chamber, haematoxylin-eosin, FIG. 1C): longitudinal organisation among the fibres
- necrotic cells (astrocytes) in optic nerve sections ([3]; rats treated with 2% MTC and propionyl L-carnitine 0.15 mM, anterior chamber, FIG. 1C): no necrotic cells were detected
- TUNEL fluorescence (apoptotic cells) in optic nerves ([3]; rats treated with MTC and propionyl L-carnitine 0.15 mM, anterior chamber, fluorescence microscopy, FIG. 2B): the presence of TUNEL fluorescence was not observed
- alterations of chromatin condensation (haematoxylin counterstaining) (BAX; serum-deprived 3T6 cells after treatment): tend to be reduced
- BAX expression, dependence on concentration (BAX; serum-deprived 3T6 cells, 0.25 mM, 0.55 mM, 1.1 mM): proportional to the different concentrations
- expression of BAX compared to untreated serum-deprived cells (BAX; serum-deprived 3T6 cells, FIG. 4B): a lower expression of BAX
- Visual field (Octopus) after treatment, MD ([4]; Patient 1, OS, 30 days of treatment, before treatment 2): 5.6
- Visual field (Octopus) after treatment, MS ([4]; Patient 1, OS, 30 days of treatment, before treatment 11.6): 20.2
- Posterior nasal ciliary artery resistance index (R.I.) after treatment ([4]; Patient 1, SN, 30 days, before treatment 0.63): 0.66
- Posterior nasal ciliary artery diastolic flow after treatment ([4]; Patient 1, SN, 30 days, before treatment 2.21): 5.75 cm/sec
- Posterior nasal ciliary artery systolic flow after treatment ([4]; Patient 1, SN, 30 days, before treatment 5.96): 16.7 cm/sec
- Posterior temporal ciliary artery resistance index (R.I.) after treatment ([4]; Patient 2, DX, 12 days, before treatment (SN) 0.67): 0.55
- Posterior temporal ciliary artery diastolic flow after treatment ([4]; Patient 2, DX, 12 days, before treatment (SN) 1.92): 3.86 cm/sec
- Posterior temporal ciliary artery systolic flow after treatment ([4]; Patient 2, DX, 12 days, before treatment (SN) 5.75): 8.65 cm/sec
- Visual field (Octopus) after treatment, MD ([4]; Patient 2, OD, 12 days of treatment, before treatment 11.1): 8.4
- Visual field (Octopus) after treatment, MS ([4]; Patient 2, OD, 12 days of treatment, before treatment 15.5): 16.2
- visual fields ([4]; subjects with stable glaucoma, 2 g/day by mouth): improves visual fields
- intraocular pressure (IOP) [4, 6]: no significant reduction in IOP
- ocular arterial flows [4, 6]: increases the flows
- peripheral resistance index in the sectors affected [4, 6]: reduces the resistance index
- cell growth (cell count) compared to untreated control cells [5]: an increase in cell growth
